≈ marks a conversion by molar mass, not a printed value. Where a SMILES comes first, the peptide text is derived from it. Bridges are numbered along the chain shown (N, C = ends). [ ]: non-standard residue; d: D form. The star is where a group is joined. Ileψ(thiazoline)Cys = CC[C@H](C)[C@H](N)C1=N[C@H](C(=O)*)CS1; dOrn = NCCC[C@@H](N)C(=O)O
Tests used:
Format in all cases: functional
Staphylococcus aureus [1] = assay: Antibacterial activity against vancomycin-intermediate Staphylococcus aureus Mu50 after 24 hrs by Etest
Staphylococcus aureus [2] = assay: Antibacterial activity against vancomycin-susceptible Staphylococcus aureus Mu50omega after 24 hrs by Etest
Staphylococcus aureus [3] = assay: Antibacterial activity against vancomycin-susceptible Staphylococcus aureus Mu50omega expressing vraSn mutant gene after 24 hrs by Etest
Staphylococcus aureus [4] = assay: Antibacterial activity against vancomycin-susceptible Staphylococcus aureus Mu50omega expressing vraSm mutant gene after 24 hrs by Etest
Staphylococcus aureus [5] = assay: Antibacterial activity against vancomycin-susceptible Staphylococcus aureus Mu50omega expressing vraSm, graRm mutant gene after 24 hrs by Etest
Staphylococcus aureus [6] = assay: Antibacterial activity against vancomycin-intermediate Staphylococcus aureus Mu50 after 48 hrs by Etest
Staphylococcus aureus [7] = assay: Antibacterial activity against vancomycin-susceptible Staphylococcus aureus Mu50omega after 48 hrs by Etest
Staphylococcus aureus [8] = assay: Antibacterial activity against vancomycin-susceptible Staphylococcus aureus Mu50omega expressing vraSn mutant gene after 48 hrs by Etest
Staphylococcus aureus [9] = assay: Antibacterial activity against vancomycin-susceptible Staphylococcus aureus Mu50omega expressing vraSm mutant gene after 48 hrs by Etest
Staphylococcus aureus [10] = assay: Antibacterial activity against vancomycin-susceptible Staphylococcus aureus Mu50omega expressing vraSm, graRm mutant gene after 48 hrs by Etest

Molecule	MIC (Staphylococcus aureus [1]; Mu50, 24 h)	MIC (Staphylococcus aureus [2])	MIC (Staphylococcus aureus [3])	MIC (Staphylococcus aureus [4])	MIC (Staphylococcus aureus [5])	MIC (Staphylococcus aureus [6]; Mu50, 48 h)	MIC (Staphylococcus aureus [7])	MIC (Staphylococcus aureus [8])	MIC (Staphylococcus aureus [9])	MIC (Staphylococcus aureus [10])	MIC (Staphylococcus aureus [1])	MIC (Staphylococcus aureus [6])
CO/N=C(\C(=O)N[C@@H]1C(=O)N2C(C(=O)O)=C(CSc3nc(=O)c(O)nn3C)CS[C@H]12)c1csc(N)n1 [CEFTRIAXONE]	> 256 µg/mL	3 µg/mL (≈ 5.41 µM)	> 0.256 µg/mL	> 256 µg/mL	> 256 µg/mL	> 256 µg/mL	> 256 µg/mL					
O=C(O)c1cn(C2CC2)c2cc(N3CCNCC3)c(F)cc2c1=O [CIPROFLOXACIN]	> 32 µg/mL	> 32 µg/mL				> 32 µg/mL	> 32 µg/mL					
C[C@H]1COc2c(N3CCN(C)CC3)c(F)cc3c(=O)c(C(=O)O)cn1c23.C[C@H]1COc2c(N3CCN(C)CC3)c(F)cc3c(=O)c(C(=O)O)cn1c23.O [LEVOFLOXACIN]	> 32 µg/mL	> 32 µg/mL				> 32 µg/mL	> 32 µg/mL					
CC[C@H]1OC(=O)[C@H](C)[C@@H](O[C@H]2C[C@@](C)(OC)[C@@H](O)[C@H](C)O2)[C@H](C)[C@@H](O[C@@H]2O[C@H](C)C[C@H](N(C)C)[C@H]2O)[C@](C)(O)C[C@@H](C)C(=O)[C@H](C)[C@@H](O)[C@]1(C)O [ERYTHROMYCIN]	> 250 µg/mL	> 256 µg/mL				> 250 µg/mL	> 256 µg/mL					
CC[C@H](C)[C@H](N)C1=N[C@H](C(=O)N[C@@H](CC(C)C)C(=O)N[C@H](CCC(=O)O)C(=O)N[C@H](C(=O)N[C@H]2CCCCNC(=O)[C@H](CC(N)=O)NC(=O)[C@@H](CC(=O)O)NC(=O)[C@H](Cc3cnc[nH]3)NC(=O)[C@@H](Cc3ccccc3)NC(=O)[C@H]([C@@H](C)CC)NC(=O)[C@@H](CCCN)NC2=O)[C@@H](C)CC)CS1 [BACITRACIN] ({Ileψ(thiazoline)Cys}-L[dE]IK[dOrn]I[dF]H[dD]N; lactam 4-C)	> 256 µg/mL	12 µg/mL (≈ 8.43 µM)	128 µg/mL (≈ 90 µM)	256 µg/mL (≈ 180 µM)	256 µg/mL (≈ 180 µM)	> 256 µg/mL	24 µg/mL (≈ 16.9 µM)	256 µg/mL (≈ 180 µM)	> 256 µg/mL	> 256 µg/mL		
GENTAMICIN		0.064 µg/mL	64 µg/mL	0.064 µg/mL	0.064 µg/mL		0.064 µg/mL	0.064 µg/mL	0.064 µg/mL	0.064 µg/mL	0.128 µg/mL	0.128 µg/mL
CC[C@H]1OC(=O)[C@H](C)[C@@H](O[C@H]2C[C@@](C)(OC)[C@@H](O)[C@H](C)O2)[C@H](C)[C@@H](O[C@@H]2O[C@H](C)C[C@H](N(C)C)[C@H]2O)[C@](C)(OC)C[C@@H](C)C(=O)[C@H](C)[C@@H](O)[C@]1(C)O [CLARITHROMYCIN]	> 256 µg/mL	> 256 µg/mL				> 256 µg/mL	> 256 µg/mL					
CCC[C@@H]1C[C@@H](C(=O)N[C@@H]([C@H]2O[C@H](SC)[C@H](O)[C@@H](O)[C@H]2O)[C@H](C)Cl)N(C)C1 [CLINDAMYCIN]	> 256 µg/mL	> 256 µg/mL				> 256 µg/mL	> 256 µg/mL					
Cc1onc(-c2ccccc2)c1C(=O)N[C@@H]1C(=O)N2[C@@H]1SC(C)(C)[C@@H]2C(=O)O [OXACILLIN]	> 256 µg/mL	8 µg/mL (≈ 19.9 µM)	> 256 µg/mL	> 256 µg/mL	> 256 µg/mL	> 256 µg/mL	8 µg/mL (≈ 19.9 µM)	> 256 µg/mL	> 256 µg/mL	> 256 µg/mL		
C[C@@H](O)[C@H]1C(=O)N2C(C(=O)O)=C(SCCNC=N)C[C@H]12 [IMIPENEM ANHYDROUS]	> 32 µg/mL	0.38 µg/mL (≈ 1.27 µM)	> 32 µg/mL	> 32 µg/mL	> 32 µg/mL	> 32 µg/mL	0.38 µg/mL (≈ 1.27 µM)	> 32 µg/mL	> 32 µg/mL	> 32 µg/mL		
C[C@H]1c2cccc(O)c2C(=O)C2=C(O)[C@]3(O)C(=O)C(C(N)=O)=C(O)[C@@H](N(C)C)[C@@H]3[C@@H](O)[C@@H]21.O [DOXYCYCLINE]	8 µg/mL	8 µg/mL	8 µg/mL	8 µg/mL	8 µg/mL	> 256 µg/mL	> 256 µg/mL					
CC(=O)OCC1=C(C(=O)O)N2C(=O)[C@@H](NC(=O)Cc3cccs3)[C@H]2SC1 [CEPHALOTHIN]	128 µg/mL (≈ 323 µM)	0.25 µg/mL (≈ 0.631 µM)	> 256 µg/mL	> 256 µg/mL	> 256 µg/mL	128 µg/mL (≈ 323 µM)	0.38 µg/mL (≈ 0.959 µM)	> 256 µg/mL	> 256 µg/mL	> 256 µg/mL		
CC[C@H]1OC(=O)[C@H](C)[C@@H](O[C@H]2C[C@@](C)(OC)[C@@H](O)[C@H](C)O2)[C@H](C)[C@@H](O[C@@H]2O[C@H](C)C[C@H](N(C)C)[C@H]2O)[C@](C)(O)C[C@@H](C)CN(C)[C@H](C)[C@@H](O)[C@]1(C)O [AZITHROMYCIN]	> 256 µg/mL	> 256 µg/mL				> 256 µg/mL	> 256 µg/mL					
CC(=O)NC[C@H]1CN(c2ccc(N3CCOCC3)c(F)c2)C(=O)O1 [LINEZOLID]	0.5 µg/mL (≈ 1.48 µM)	0.5 µg/mL (≈ 1.48 µM)	0.5 µg/mL (≈ 1.48 µM)	0.5 µg/mL (≈ 1.48 µM)	0.5 µg/mL (≈ 1.48 µM)	0.5 µg/mL (≈ 1.48 µM)	0.5 µg/mL (≈ 1.48 µM)	0.5 µg/mL (≈ 1.48 µM)	0.5 µg/mL (≈ 1.48 µM)	0.5 µg/mL (≈ 1.48 µM)		
CCCCCCCCCC(=O)N[C@@H](Cc1c[nH]c2ccccc12)C(=O)N[C@H](CC(N)=O)C(=O)N[C@@H](CC(=O)O)C(=O)N[C@@H]1C(=O)NCC(=O)N[C@@H](CCCN)C(=O)N[C@@H](CC(=O)O)C(=O)N[C@H](C)C(=O)N[C@@H](CC(=O)O)C(=O)NCC(=O)N[C@H](CO)C(=O)N[C@@H]([C@H](C)CC(=O)O)C(=O)N[C@@H](CC(=O)c2ccccc2N)C(=O)O[C@@H]1C	2 µg/mL (≈ 1.23 µM)	1 µg/mL (≈ 0.617 µM)	1.5 µg/mL (≈ 0.926 µM)	1.5 µg/mL (≈ 0.926 µM)	2 µg/mL (≈ 1.23 µM)	2 µg/mL (≈ 1.23 µM)	1 µg/mL (≈ 0.617 µM)	1.5 µg/mL (≈ 0.926 µM)	1.5 µg/mL (≈ 0.926 µM)	2 µg/mL (≈ 1.23 µM)		
CO[C@@]1(NC(=O)Cc2cccs2)C(=O)N2C(C(=O)O)=C(COC(N)=O)CS[C@@H]21 [CEFOXITIN]	> 256 µg/mL	32 µg/mL (≈ 74.9 µM)	> 256 µg/mL	> 256 µg/mL	> 256 µg/mL	> 256 µg/mL	32 µg/mL (≈ 74.9 µM)	> 256 µg/mL	> 256 µg/mL	> 256 µg/mL		
CN(C)[C@@H]1C(O)=C(C(N)=O)C(=O)[C@@]2(O)C(O)=C3C(=O)c4c(O)cccc4[C@@](C)(O)[C@H]3C[C@@H]12 [TETRACYCLINE]	32 µg/mL (≈ 72 µM)	32 µg/mL (≈ 72 µM)	24 µg/mL (≈ 54 µM)	24 µg/mL (≈ 54 µM)	24 µg/mL (≈ 54 µM)	48 µg/mL (≈ 108 µM)	48 µg/mL (≈ 108 µM)	48 µg/mL (≈ 108 µM)	48 µg/mL (≈ 108 µM)	48 µg/mL (≈ 108 µM)		
CN[C@H](CC(C)C)C(=O)N[C@H]1C(=O)N[C@@H](CC(N)=O)C(=O)N[C@H]2C(=O)N[C@H]3C(=O)N[C@H](C(=O)N[C@H](C(=O)O)c4cc(O)cc(O)c4-c4cc3ccc4O)[C@H](O)c3ccc(c(Cl)c3)Oc3cc2cc(c3O[C@@H]2O[C@H](CO)[C@@H](O)[C@H](O)[C@H]2O[C@H]2C[C@](C)(N)[C@H](O)[C@H](C)O2)Oc2ccc(cc2Cl)[C@H]1O [VANCOMYCIN]	6 µg/mL (≈ 4.14 µM)	0.5 µg/mL (≈ 0.345 µM)	3.5 µg/mL (≈ 2.42 µM)	4.5 µg/mL (≈ 3.11 µM)	6 µg/mL (≈ 4.14 µM)	7 µg/mL (≈ 4.83 µM)	1 µg/mL (≈ 0.69 µM)	4 µg/mL (≈ 2.76 µM)	5 µg/mL (≈ 3.45 µM)	7 µg/mL (≈ 4.83 µM)		
COc1cccc(OC)c1C(=O)N[C@@H]1C(=O)N2[C@@H]1SC(C)(C)[C@@H]2C(=O)O [METHICILLIN]	> 256 µg/mL	> 256 µg/mL				> 256 µg/mL	> 256 µg/mL					
C[C@@H]1CN(c2c(F)c(N)c3c(=O)c(C(=O)O)cn(C4CC4)c3c2F)C[C@H](C)N1 [SPARFLOXACIN]	> 32 µg/mL	> 32 µg/mL				> 32 µg/mL	> 32 µg/mL					
